Values of other authors as cited in patent US20060004050A1, “Compositions and methods for the prevention or treatment of pain and other nervous system disorders” (priority 2004, published 2006).

Columns and labels:
[1] = test system: spinal cord and descending neural pathways; conditions: rats
[2] = test system: spinal nerve root action potentials; conditions: cats
[3] = test system: calcium current of snail neurons
[4] = in vivo
[5] = test system: tissue membrane
[6] = in vivo; remark: listed apart in the source
[7] = rat
[8] = test system: beta-adrenergic; conditions: L-form versus D-enantiomer

In the case of `Cc1ccc(C(=O)C(C)CN2CCCCC2)cc1` (racemic) [Tolperisone, 2,4′-dimethyl-3-piperidino-propiophenone], the “effect on segmental (limb) reflexes” value [1] is given as “depress segmental (limb) reflexes”, the “effect on ventral nerve root reflexes and dorsal nerve root reflex” value [2] is given as “dose-dependently inhibit both ventral nerve root reflexes and the dorsal nerve root reflex” and the “effect on calcium current” value [3] is given as “inhibit calcium current dose-dependently”. The “most serious adverse effect” value [4] was “anaphylaxis”, the “other frequently reported adverse effects” value [4] was “muscle weakness, muscle pain, headache, dizziness, and gastric complaints” and the membrane effect [5] was “tissue membrane stabilizing properties”.
For `O=C1CCC(N2C(=O)c3ccccc3C2=O)C(=O)N1` (single isomer, unassigned) [D-enantiomer of thalidomide, thalidomide], the “effect when prescribed for morning sickness during pregnancy” value [6] is given as “safe and effective sedative”.
In the case of `O=C1CCC(N2C(=O)c3ccccc3C2=O)C(=O)N1` (single isomer, unassigned) [L-enantiomer of thalidomide, thalidomide], the “effect when prescribed for morning sickness during pregnancy” value [6] is listed as “potent teratogen”.
For `Cc1ccc(C(=O)C(C)CN2CCCCC2)cc1` (single isomer, unassigned; (+)) [(+)-tolperisone], the “pharmacodynamic property of the isomer” value [7] is listed as “more muscle-relaxant properties”.
In the case of `Cc1ccc(C(=O)C(C)CN2CCCCC2)cc1` (single isomer, unassigned; (-)) [(−)-tolperisone], the “pharmacodynamic property of the isomer” value [7] is listed as “vasodilatory activity”.
For `CC(C)NCC(O)COc1cccc2ccccc12` (centres unmarked) [propranolol], the “potency relative to the D-enantiomer” value [8] is given as 100 times.
